{"source": "patent US20250108213A1", "about": "“COMPOSITIONS AND METHODS FOR ENHANCING THE EFFECT OF PLATINUM-BASED SYSTEMIC THERAPY” (NOVOCURE GMBH, priority 2023, published 2025)", "format_in_all_cases": "cell-based, human", "key": {"A2780cis cells": {"system": "A2780cis cells", "assay": "Cell count and overall effect (cell count x colony formation) after 72 h drug with or without TTFields", "method": "(§1) TTFields were applied to the cells for 72 h in the absence or presence of various concentrations of carboplatin. Synergy was defined when the observed value was lower than that predicted for an additive effect (presented by the red dotted line-calculated by multiplying the observed effects for TTFields alone with that for cisplatin alone).\nThe Cytotoxic effect was also determined. Treated cells were counted using a flow cytometer, and cytotoxic effect was calculated relative to control cells.\nTreated cells were harvested, re-plated, and grown for an additional 7-14 days. Colonies were stained (0.5% crystal violet solution), counted, and clonogenic effect was calculated relative to control. The overall effect was calculated by multiplying the cytotoxic and clonogenic effects.\nTTFields application was studied. Ovarian carcinoma cells A2780cis (cisplatin resistant cells) were treated for 72 h with TTFields at an intensity of 1 V/cm RMS and a frequency of 200 kHz using the inovitro system (See FIG. 11).\nas §1, with “PARPi Olaparib and Niraparib.” for “carboplatin.”\nThe cytotoxic effect was studied. Treated cells were counted using a flow cytometer, and cytotoxic effect was calculated relative to control cells.\nTreated cells were harvested, re-plated, and grown for an additional 7-14 days. Colonies were stained (0.5% crystal violet solution), counted, and clonogenic effect was calculated relative to control. Overall effect was calculated by multiplying the cytotoxic and clonogenic effects.\nCells were seeded on coverslip (22 mm diameter; 20×10^3 cells/coverslip for A2780 and A2780cis; 40×10^3 cells/coverslip for OVCAR-3). After overnight incubation, the coverslips were transferred into in vitro dishes containing 2 ml of media. TTFields at a frequency of 200 kHz (and intensity of 1 V/cm RMS) were applied to the cells for 72 hr using the INOVITRO system (Novocure, Haifa, Israel).\nFor efficacy outcomes (cell count, overall effect, and apoptosis), various concentrations of carboplatin (MCE MedChemExpress, HY-17393), olaparib (Cayman Chemical, 10621), or niraparib (Cayman Chemical, 20842) were applied, with or without TTFields.\nCell count was examined following treatment using Cytek Northern Lights flow cytometer (Cytek Biosciences, USA).\nTreated cells were harvested, re-plated in 6-well plates (500 cells/well for A2780 and A2780cis; 1000 for cells/well OVCAR-3), and grown for 7 (A2780 and A2780cis) or 21 (OVCAR-3) days. Colonies were stained with 0.5% crystal violet, quantified with ImageJ, and expressed as percentages relative to control. Overall effect was calculated by multiplying colony formation with the corresponding cell count.\nThe surviving fraction predicted for an additive effect between TTFields and drug was calculated per the various drug concentrations by multiplying the actual measured surviving fractions for the individual treatments one by the other (SFcalculated additive=SFTTFields×SFdrug; SF are expressed as probability). Based on the calculated values, a trendline was determined. Additivity, synergy, or antagonism was defined when the calculated additive trendline overlapped, was above, or was below the actual measured line for TTFields+drug, respectively.\nFor quantifying the magnitude of TTFields-drug interaction, interaction index (Ii) values were calculated by the Bliss independence method using mortality values (Mx=1−SFx). Per the various drug concentrations, mortality predicted for an additive effect between TTFields and drug (Mcalculated additive=MTTFields+Mdrug−MTTFields×Mdrug) was divided by the actual measured mortality for TTFields+drug."}, "OVCAR-3 cells": {"system": "OVCAR-3 cells", "assay": "Apoptosis, Annexin V/7-AAD staining, flow cytometer", "conditions": "TTFields applied with drug", "method": "Apoptosis: Treated cells were double-stained with FITC-conjugated annexin V (AnnV) and 7-aminoactinomycin D (7AAD), and data acquisition was performed with a flow cytometer.\nTreated cells were stained with FITC-conjugated Annexin V (AnnV) and 7-Aminoactinomycin D (7-AAD) using a commercial kit (BioLegend, San Diego, CA, USA), according to the manufacturer's instruction. Data acquisition and analysis were done on the Cytek Northern Lights flow cytometer"}, "[1]": {"system": "γH2AX foci in cell nuclei", "assay": "DNA damage examination by fluorescence microscopy", "conditions": "treatment alone, all cell lines (A2780, OVCAR-3, A2780cis), relative to control", "method": "For DNA damage and cell cycle examination, the following drug concentrations were selected: For A2780—6 μM carboplatin, 1 μM olaparib, and 0.5 μM niraparib; For OVCAR-3-16 μM carboplatin, 0.5 μM olaparib, and 0.8 μM niraparib; For A2780cis—36 μM carboplatin, 10 μM olaparib, and 1.5 μM niraparib. Treated cells were fixed with 4% paraformaldehyde for 10 min, permeabilized for 20 min with 0.5% Triton X-100 in PBS, and blocked with donkey serum (PBS with 0.3% Triton X-100 and donkey serum 1:100). Cells were incubated at 4° C. overnight with anti-γH2AX antibody (Cell Signaling, Danvers, MA, USA; #9718, 1:400), followed by incubation at room temperature for 1 hr with Alexa Flour 488-conjugated secondary antibody (Jackson Immunoresearch, Cambridge, UK; #711-545-152, 1:500) and […] 4′,6-diamidino-2-phenylindole (DAPI; Sigma Aldrich, Rehovot, Israel). LSM 700 laser scanning confocal system (Zeiss, Gottingen, Germany) was utilized to obtain images, and the mean number of foci per nucleus was determined using the FIJI software with the BioVoxxel plugin."}}, "note": "“Also recorded” adds a separate entry of the source.", "data": [{"smiles": "O=C(c1cc(Cc2n[nH]c(=O)c3ccccc23)ccc1F)N1CCN(C(=O)C2CC2)CC1", "note": "[olaparib]", "values": [{"measurement": "effect of TTFields on the drug-induced overall effect (cell count x colony formation)", "setting": "A2780cis cells; TTFields plus drug vs drug alone", "value": "significantly augmented"}, {"measurement": "effect of TTFields on the drug-induced effect, cell count", "setting": "A2780cis cells; TTFields plus drug vs drug alone, p<0.0001", "value": "significantly augmented"}, {"measurement": "sensitivity to drug (cell count dose response)", "setting": "A2780cis cells; drug alone, 72 h, compared among A2780, OVCAR-3, A2780cis", "value": "highest resistance"}, {"measurement": "type of TTFields-drug interaction (measured vs calculated additive curve)", "setting": "A2780cis cells; platinum-resistant cells, TTFields 200 kHz, 1 V/cm RMS, 72 h", "value": "tendency to synergy"}, {"measurement": "effect of TTFields on the apoptotic effect / apoptotic cell fraction", "setting": "OVCAR-3 cells", "value": "enhanced; also recorded: elevation"}, {"measurement": "levels of γH2AX foci, monotherapy", "setting": "[1]", "value": "mild elevation"}]}]}
